# Test results: patent publication US20020052503A1, “Substituted benzolactam compounds as substance p antagonists” (priority 1995, published 2002)
# Biological target: T1, substance P receptor sites in human IM-9 cells (Homo sapiens, UniProt P25103)
# T1 construct: endogenous in cells; host or cells: human IM-9 cells (whole cells)
# Test: IM-9 binding assay (inhibition of [^3H]SP binding)
# Conditions: [^3H]SP binding to human IM-9 cells
# Description: The activity of the compounds of the present invention, as substance P antagonists, is determined by their ability to inhibit the binding of substance P at its 30 receptor sites in CHO-cells which reveal NK1 receptor or IM-9 cells employing radioactive ligands. The substance P antagonist activity of the herein described compounds is evaluated by using the standard assay procedure described by D. G. Payan et al., as reported in the The Journal of Immunology . 133, 3260 (1984). This method essentially involves determining the concentration of the individual compound required to reduce by 50% the amount of radiolabelled substance P ligands at their receptor sites in said isolated cow tissues or IM-9 cells, thereby affording characteristic IC50 values for each compound tested. More specifically, inhibition of [^3H]SP binding to human IM-9 cells by compounds are determined in assay buffer (50 mM Tris-HCl (pH 7.4), 1 mM MnCl2, 0.02% bovine serum albumin, bacitracin (40 μg/ml), leupeptin (4 μg/ml), chymostatin (2 μg/ml) and phosphoramidon (30 μg/ml)). […] Nonspecific binding is defined as the radioactivity remaining in the presence of 1 μM SP. The filters are placed into tubes and counted using liquid scintillation counter.
# T1 sequence (P25103 whole entry): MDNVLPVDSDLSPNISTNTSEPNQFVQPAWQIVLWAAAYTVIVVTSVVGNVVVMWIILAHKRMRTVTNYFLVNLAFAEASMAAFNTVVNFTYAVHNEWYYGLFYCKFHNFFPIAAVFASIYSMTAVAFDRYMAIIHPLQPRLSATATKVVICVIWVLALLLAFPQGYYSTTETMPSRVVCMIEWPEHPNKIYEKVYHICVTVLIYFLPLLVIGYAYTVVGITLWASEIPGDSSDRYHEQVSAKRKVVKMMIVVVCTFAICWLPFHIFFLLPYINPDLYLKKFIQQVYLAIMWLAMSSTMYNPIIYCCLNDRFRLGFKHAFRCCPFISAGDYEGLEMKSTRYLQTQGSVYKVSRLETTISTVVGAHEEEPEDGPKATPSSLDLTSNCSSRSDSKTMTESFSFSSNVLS
row,IC50 [nM],SMILES
1,< 0.1,"COc1cc2c(cc1CN[C@H]1CCCN[C@H]1c1ccccc1)N(C)C(=O)CC2.Cl.Cl [Compound 21, (2S,3S)-3-(6-Methoxy-1-methyl-2-oxo-1,2,3,4-tetrahydroquinolin-7-yl)methylamino-2-phenylpiperidine dihydrochloride]"

# Tested on: [Sar^9, Met(O2)^11]substance P-induced hind paw tapping in gerbils
# Test: [Sar^9, Met(O2)^11]substance P-induced tapping test
# Format: in vivo, gerbil
# Conditions: Meriones unguiculatus, % inhibition at 0.3 mg/kg scoring
# Description: The activity of the compounds of this invention against CNS disorder is determined by [Sar^9, Met(O2)^11]substance P-induced tapping test in gerbils. More specifically, gerbils are lightly anesthetized with ether and the skull surface is exposed. [Sar^9, Met(O2)^11]substance P or vehicle (5 μl) are administered directly into the lateral ventricles via a 25 gauge needle inserted 3.5 mm below lambda. Following injection, gerbils are placed in 2 l beaker individually and monitored for repetitive hind paw tapping. Some compounds prepared in the following Examples were tested in accordance with these testing methods.
row,SMILES,inhibition at 0.3 mg/kg [%]
1,"COc1cc2c(cc1CN[C@H]1CCCN[C@H]1c1ccccc1)N(C)C(=O)CC2.Cl.Cl [Compound 21, (2S,3S)-3-(6-Methoxy-1-methyl-2-oxo-1,2,3,4-tetrahydroquinolin-7-yl)methylamino-2-phenylpiperidine dihydrochloride]",52

# Biological target: T2, Ca^2+ channel in rat heart membrane preparation (Rattus norvegicus, UniProt P22002)
# T2 construct: from tissue; host or cells: rat heart membrane preparation
# Test: verapamil binding study ([^3H]desmethoxyverapamil)
# Conditions: read-out: verapamil binding study (Ca^2+ channel binding affinity)
# Description: The adverse effect on Ca^2+ channel binding affinity is determined by verapamil binding study in rat heart membrane preparation. More specifically, verapamil binding study is performed as previously described by Reynolds et al., (J. Pharmacol. Exp. Ther. 237, 731, 1986). Briefly, incubations are initiated by the addition of tissue to tubes containing 0.25 nM [^3H]desmethoxyverapamil and various concentrations of compounds (total volume; 1 ml). Nonspecific binding is defined as radioligand binding remaining in the presence of 3-10 μM methoxyverapamil.
# T2 sequence (P22002 whole entry, other chains not shown): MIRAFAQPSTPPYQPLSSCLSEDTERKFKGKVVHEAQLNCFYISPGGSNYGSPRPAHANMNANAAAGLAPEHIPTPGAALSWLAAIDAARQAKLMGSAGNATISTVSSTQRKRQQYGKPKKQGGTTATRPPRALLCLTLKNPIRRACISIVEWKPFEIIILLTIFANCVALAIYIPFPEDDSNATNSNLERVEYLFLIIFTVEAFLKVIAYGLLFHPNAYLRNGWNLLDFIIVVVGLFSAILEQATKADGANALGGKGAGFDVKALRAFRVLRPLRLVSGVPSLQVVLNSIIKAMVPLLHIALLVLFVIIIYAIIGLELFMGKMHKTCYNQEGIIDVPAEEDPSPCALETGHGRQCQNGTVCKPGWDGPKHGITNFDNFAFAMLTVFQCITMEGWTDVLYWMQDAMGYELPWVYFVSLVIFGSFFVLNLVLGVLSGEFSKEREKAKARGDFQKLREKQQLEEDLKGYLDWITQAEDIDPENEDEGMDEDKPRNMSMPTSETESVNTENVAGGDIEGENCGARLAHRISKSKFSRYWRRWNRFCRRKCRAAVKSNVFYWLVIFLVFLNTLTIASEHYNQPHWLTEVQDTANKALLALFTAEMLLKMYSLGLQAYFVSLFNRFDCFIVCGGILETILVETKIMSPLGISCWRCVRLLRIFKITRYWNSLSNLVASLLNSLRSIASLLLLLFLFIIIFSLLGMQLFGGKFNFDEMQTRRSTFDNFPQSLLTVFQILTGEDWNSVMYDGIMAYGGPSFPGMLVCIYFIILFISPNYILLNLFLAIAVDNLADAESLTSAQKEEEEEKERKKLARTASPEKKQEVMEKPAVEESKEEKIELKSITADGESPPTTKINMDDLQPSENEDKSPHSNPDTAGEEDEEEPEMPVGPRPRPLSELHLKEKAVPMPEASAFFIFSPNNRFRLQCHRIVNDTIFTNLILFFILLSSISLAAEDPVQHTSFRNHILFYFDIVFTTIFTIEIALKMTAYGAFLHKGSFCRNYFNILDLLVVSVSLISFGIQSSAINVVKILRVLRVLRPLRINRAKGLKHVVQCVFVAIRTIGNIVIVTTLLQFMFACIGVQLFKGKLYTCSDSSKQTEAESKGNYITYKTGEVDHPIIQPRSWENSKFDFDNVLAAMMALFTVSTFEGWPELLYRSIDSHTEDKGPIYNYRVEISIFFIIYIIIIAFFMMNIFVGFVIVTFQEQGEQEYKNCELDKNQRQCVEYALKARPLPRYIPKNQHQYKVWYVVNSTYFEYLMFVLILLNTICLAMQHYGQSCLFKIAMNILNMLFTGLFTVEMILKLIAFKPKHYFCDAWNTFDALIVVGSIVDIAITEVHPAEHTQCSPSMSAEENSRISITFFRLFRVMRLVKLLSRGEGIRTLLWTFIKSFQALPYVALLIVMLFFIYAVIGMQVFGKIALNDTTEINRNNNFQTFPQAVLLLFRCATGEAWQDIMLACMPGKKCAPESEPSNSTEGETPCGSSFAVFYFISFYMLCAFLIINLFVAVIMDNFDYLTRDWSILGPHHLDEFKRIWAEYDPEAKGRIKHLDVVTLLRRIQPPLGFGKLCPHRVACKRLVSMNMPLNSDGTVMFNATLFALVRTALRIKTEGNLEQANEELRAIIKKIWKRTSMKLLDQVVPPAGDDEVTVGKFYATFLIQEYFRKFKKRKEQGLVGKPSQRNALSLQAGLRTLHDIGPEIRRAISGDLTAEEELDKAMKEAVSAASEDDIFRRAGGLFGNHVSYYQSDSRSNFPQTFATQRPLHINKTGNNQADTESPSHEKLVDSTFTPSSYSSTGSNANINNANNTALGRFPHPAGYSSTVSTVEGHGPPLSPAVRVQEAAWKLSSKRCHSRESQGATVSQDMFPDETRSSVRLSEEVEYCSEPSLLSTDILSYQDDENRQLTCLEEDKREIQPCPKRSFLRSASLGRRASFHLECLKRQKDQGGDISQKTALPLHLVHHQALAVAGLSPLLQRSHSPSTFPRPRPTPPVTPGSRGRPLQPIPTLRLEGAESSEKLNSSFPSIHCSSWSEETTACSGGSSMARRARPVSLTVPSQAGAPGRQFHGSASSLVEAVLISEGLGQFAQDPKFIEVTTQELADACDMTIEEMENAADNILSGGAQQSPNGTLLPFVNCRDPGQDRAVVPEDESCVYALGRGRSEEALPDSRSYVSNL
# T2 sequence (P54290 25-944 partner limits assumed, other chains not shown): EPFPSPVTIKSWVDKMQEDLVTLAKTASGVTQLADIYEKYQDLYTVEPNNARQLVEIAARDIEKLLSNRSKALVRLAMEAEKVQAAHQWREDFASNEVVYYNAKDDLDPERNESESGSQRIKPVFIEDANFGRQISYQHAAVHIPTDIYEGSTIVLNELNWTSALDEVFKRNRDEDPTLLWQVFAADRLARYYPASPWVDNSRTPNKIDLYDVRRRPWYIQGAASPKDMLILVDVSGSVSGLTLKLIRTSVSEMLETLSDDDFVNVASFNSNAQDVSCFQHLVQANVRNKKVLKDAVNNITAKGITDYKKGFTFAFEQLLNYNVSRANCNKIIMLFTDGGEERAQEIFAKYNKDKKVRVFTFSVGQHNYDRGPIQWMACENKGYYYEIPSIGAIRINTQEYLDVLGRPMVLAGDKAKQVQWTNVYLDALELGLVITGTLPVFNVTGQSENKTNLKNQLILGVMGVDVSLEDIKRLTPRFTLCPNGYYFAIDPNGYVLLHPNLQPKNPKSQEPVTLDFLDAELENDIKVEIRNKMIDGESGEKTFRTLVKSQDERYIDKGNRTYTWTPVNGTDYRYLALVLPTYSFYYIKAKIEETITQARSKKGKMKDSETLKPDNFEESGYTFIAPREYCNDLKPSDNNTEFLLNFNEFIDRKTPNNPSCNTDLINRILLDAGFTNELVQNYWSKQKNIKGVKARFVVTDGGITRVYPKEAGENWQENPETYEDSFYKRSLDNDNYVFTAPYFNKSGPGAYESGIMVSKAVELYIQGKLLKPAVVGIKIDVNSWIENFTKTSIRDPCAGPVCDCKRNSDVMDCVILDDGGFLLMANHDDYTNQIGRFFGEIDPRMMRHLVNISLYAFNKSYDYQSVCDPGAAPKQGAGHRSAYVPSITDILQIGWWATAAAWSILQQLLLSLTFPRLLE
# T2 sequence (P54290 945-1091 partner limits assumed, other chains not shown): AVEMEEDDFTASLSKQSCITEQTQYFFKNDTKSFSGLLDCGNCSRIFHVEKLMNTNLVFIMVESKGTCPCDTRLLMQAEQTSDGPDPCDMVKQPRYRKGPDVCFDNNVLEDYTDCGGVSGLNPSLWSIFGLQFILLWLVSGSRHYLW
row,IC50 [nM],SMILES
1,> 3000,"COc1cc2c(cc1CN[C@H]1CCCN[C@H]1c1ccccc1)N(C)C(=O)CC2.Cl.Cl [Compound 21, (2S,3S)-3-(6-Methoxy-1-methyl-2-oxo-1,2,3,4-tetrahydroquinolin-7-yl)methylamino-2-phenylpiperidine dihydrochloride]"

# Tested on: not given
# Test: not given
# Conditions: not given
row,melting point [°C],SMILES
1,136 to 139,COc1cc2c(cc1CN[C@H]1C3CCN(CC3)[C@H]1C(c1ccccc1)c1ccccc1)N(C)C(=O)CC2
2,125 to 128,COc1cc2ccc(=O)n(C)c2cc1CN[C@H]1C2CCN(CC2)[C@H]1C(c1ccccc1)c1ccccc1
3,260 to 263,COc1cc2ccc(=O)n(C)c2cc1CN[C@H]1CCCN[C@H]1c1ccccc1.Cl.Cl
4,257 to 260,COc1cc2c(cc1CN[C@H]1CCCN[C@H]1c1ccccc1)N(C(C)C)C(=O)CC2.Cl.Cl
5,238 to 240,CN1C(=O)CCc2cc(OC(F)F)c(CN[C@H]3CCCN[C@H]3c3ccccc3)cc21.Cl.Cl
6,239 to 240,CN1C(=O)CCc2cc(OCC(F)(F)F)c(CN[C@H]3CCCN[C@H]3c3ccccc3)cc21.Cl.Cl
7,245 to 246,COc1cc2c(cc1CN[C@H]1CCCN[C@H]1c1ccccc1)N(C)C(=S)CC2.Cl.Cl
8,236 to 238,COc1cc2c(cc1CN[C@H]1CCCN[C@H]1c1ccccc1)N(C)C(=O)CCC2.Cl.Cl
9,243 to 244,COc1cc2c(cc1CN[C@H]1CCCN[C@H]1c1ccccc1)CCC(=O)N2C.Cl.Cl
10,225 to 256,COc1cc2c(cc1CN[C@H]1CCCN[C@H]1c1ccccc1)C(C(F)(F)F)CC(=O)N2C.Cl.Cl (stereo partly drawn)
11,235 to 237,COc1cc2c(cc1CN[C@H]1CCCN[C@H]1c1ccccc1)N(C)C(=O)OC2.Cl.Cl
12,252 to 254,COc1cc2c(cc1CN[C@H]1CCCN[C@H]1c1ccccc1)N(C)C(=O)SC2.Cl.Cl
13,234 to 236,COc1cc2c(cc1CN[C@H]1CCCN[C@H]1c1ccccc1)C(C)(C)C(=S)N2C.Cl.Cl
14,219 to 221,COc1cc2c(cc1CN[C@H]1CCCN[C@H]1c1ccccc1)CCC(=S)N2C.Cl.Cl
15,265 to 268,"COc1cc2c(cc1CN[C@H]1CCCN[C@H]1c1ccccc1)N(C)C(=O)CC2.Cl.Cl [Compound 21, (2S,3S)-3-(6-Methoxy-1-methyl-2-oxo-1,2,3,4-tetrahydroquinolin-7-yl)methylamino-2-phenylpiperidine dihydrochloride]"
